Read-outs that look alike come from different tables or passages of the source.
Experiments:
[1] = test system: HDAC4 (Ser246)/HDAC5 (Ser256)/HDAC7 (Ser155); assay: Western analysis of HDAC4/5/7 phosphorylation; assay type: cell-based; details: 4 μM, 24 hrs; nearly all the cell lines tested
Protocol: (§1) To identify the mechanism(s) by which SIK2 inhibition decreases DNA DBS repair, it was tested whether SIK2 inhibitors decrease the phosphorylation of class IIa HDACs, which control its nuclear cytoplasmic shuttling and consequently its association with DNA. […] Next, it was investigated whether SIK2 inhibitors increase nuclear localization of HDAC5. SIK2 inhibition increased nuclear localization of HDAC5 judged by increasing nuclear florescence intensity (FIG. 7B and FIG. 8A) and the nuclear fraction of HDAC5 expression (FIG. 8B). […] Therefore, it was hypothesized that SIK2 inhibition may block MEF transcription factor activity. […] Next, it was examined whether SIK2 regulation of MEF2 activity was HDAC4/5-dependent, increasing its binding to MEF2D protein. […] These observations are consistent with the hypothesis that SIK2 inhibition increases nuclear localization of HDAC4/5, blocking MEF2 transcription (FIG. 8E).
Cells were incubated with and without treatment for the intervals indicated and then cells were incubated in lysis buffer (50 mM Hepes, pH 7.0, 150 mM NaCl, 1.5 mM MgCl2, 1 mM EGTA, 10, 10% glycerol, 1% Triton X-100, 50 mM NaF, 1 mM Na3VO4 1 mM PMSF, 10 μg/mL leupeptin and10 μg/mL aprotinin) on ice for 30 min. […] The protein concentration was assessed using a bicinchoninic acid (BCA) protein assay (Thermo Scientific, 23228). […]

[2] = test system: SKOv3, OVCAR8, HCC5032, or MDA-MB-231 cells; assay: DNA damage: γ-H2AX staining and comet assay with olaparib; assay type: cell-based; details: SKOv3, OVCAR8, HCC5032, MDA-MB-231
Protocol: Cells were trypsinized and resuspended at 2×10^5/mL in cold PBS without Ca^2+ and Mg^2+. Cells were mixed with pre-warmed comet agarose at 1:10 (v/v) ratio. 10 uL of cell agarose mixture was plated onto comet slides pre-coated with 75 uL of agarose and chilled at 4° C. for 15 min to set. Cells were lysed in 25 mL of Lysis buffer at 4° C. for 2 hrs and washed with alkaline solution (pH 10). Comet slides were electrophoresed in cold alkaline solution at 20V for 15 min. Slides were rinsed with water and dried in 70% ethanol for 5 min. Slides were then stained with Vista Green DNA dye and viewed using an Olympus epifluorescence microscope with a FITC filter. Images were captured using a 20× objective. […] Experiments were run in triplicate and Olive Tail Moment was measured using CaspLab1.2.3β2 software (CaspLab.com). Olive Tail Moment=Tail DNA %×Tail Length. 50-200 Cells were measured for each treatment and experiments were repeated twice independently to ensure reproducibility.
Cells on 22×22 mm coverslips were fixed in 4% formaldehyde in PBS (Thermo Fisher, J19943-K2) and permeabilized with 0.1% Triton X-100 (Sigma, X100) in PBS for 15 min. Cells were blocked with 5% BSA in PBS for 30 min and then stained with antibody overnight at 4° C., followed by secondary antibody and DAPI for 1 hr. […] After 24-hrs incubation, cells were fixed in 4% formaldehyde in PBS. Cells were stained as described above. […] DNA damage visualized by γ-H2AX staining was evaluated by counting nuclear γ-H2AX puncta in each cell. […] After 8 hrs incubation, cells were fixed in 4% formaldehyde in PBS. Cells were stained as described above. Images were captured using an Olympus IX71 microscope and nuclear γ-H2AX puncta in each cells were counted using with Olympus CellSens Dimension software. HDAC5 (CST20458) and γ-H2AX (CST2577) antibodies were purchased from Cell Signaling Technology. Experiments were repeated twice independently to ensure reproducibility and 50-200 cells were counted for each treatment.

IGROV1 = assay: CellTiter-Glo cell viability dose response; assay type: cell-based; details: Homo sapiens, IGROV-1, 96 h
Protocol: (§2) Luminescence was measured on a Synergy2 microplate reader (BioTek) after 10 min of shaking. Dose-response experiments were plotted and IC50 values were calculated using nonlinear curve fitting with normalized response and variable slope by GraphPad Prism 8. Drug interaction of the two-drug combination using a constant ratio were processed and a Combination Index (CI) was calculated using CalcuSyn 2.0 (BIOSOFT). CI<1 indicates synergism, CI=1 indicates additive effect and CI>1 indicates antagonism.

OVCAR8 = assay: CellTiter-Glo cell viability dose response; assay type: cell-based; details: Homo sapiens, OVCAR-8, 96 h
Protocol: as §2

HMEC16620 = assay: CellTiter-Glo cell viability dose response; assay type: cell-based; details: Homo sapiens, 96 h
Protocol: as §2

SKOv3 = assay: CellTiter-Glo cell viability dose response; assay type: cell-based; details: Homo sapiens, SK-OV-3, 96 h
Protocol: as §2

OC316 = assay: CellTiter-Glo cell viability dose response; assay type: cell-based; details: Homo sapiens, 96 h
Protocol: as §2

HCC5032 = assay: CellTiter-Glo cell viability dose response; assay type: cell-based; details: 96 h
Protocol: as §2

OVCAR3 = assay: CellTiter-Glo cell viability dose response; assay type: cell-based; details: Homo sapiens, OVCAR-3, 96 h
Protocol: as §2

BT549 = assay: CellTiter-Glo cell viability dose response; assay type: cell-based; details: Homo sapiens, BT-549, 96 h
Protocol: as §2

MDA-MD-231 = assay: CellTiter-Glo cell viability dose response; assay type: cell-based; details: Homo sapiens, 96 h
Protocol: as §2

OV90 = assay: CellTiter-Glo cell viability dose response; assay type: cell-based; details: Homo sapiens, OV-90, 96 h
Protocol: as §2

NOE72 = assay: CellTiter-Glo cell viability dose response; assay type: cell-based; details: 96 h
Protocol: as §2

DOV13 = assay: CellTiter-Glo cell viability dose response; assay type: cell-based; details: Homo sapiens, DOV13, 96 h
Protocol: as §2

MDA-2774 = assay: CellTiter-Glo cell viability dose response; assay type: cell-based; details: Homo sapiens, 96 h
Protocol: as §2

OAW28 = assay: CellTiter-Glo cell viability dose response; assay type: cell-based; details: Homo sapiens, OAW-28, 96 h
Protocol: as §2

[3] = test system: SIK2-expressed SKOV3 cells; assay: Cell viability assessment of SKOV3; assay type: cell-based
MEF2 promoter activity = assay: MEF2 luciferase reporter assay; assay type: cell-based; details: ovarian and breast cancer cell lines; time- and dose-dependent
Protocol: as §1

MDA-MB-231 xenograft = assay: MDA-MB-231 mammary fat pad xenograft, Compound B and olaparib; assay type: in vivo, mice; details: 50 mg/kg, oral, 5 weeks
Protocol: Forty female nu/nu mice were injected with 0.8×10^6 MDA-MB-231 cells into their fourth mammary fat pads. […] Tumors were measured every week as noted above (SKOv3 xenograft models).

SKOv3 cells = details: RNA-seq
SKOv3 xenograft [4] = assay: SKOv3 subcutaneous xenograft, SIK2 inhibitor and olaparib; assay type: in vivo, mice; details: SKOv3 s.c.; oral, five times per week, 4 weeks
SKOv3 xenograft [5] = assay: SKOv3 subcutaneous xenograft, Compound B, carboplatin and paclitaxel; assay type: in vivo, mice; details: SKOv3 s.c.; 6 weeks; Compound B 40 mg/kg
Protocol: After treatment as indicated in (A) for three weeks, mice were weighed, and intraperitoneal nodules were excised and weighed. […] Mice were treated with single, double, or triple agents for 6 weeks. Tumor was measured once a week until the tumor burden in control group reached maximum allowance. The graphs indicate the mean±standard deviation. Statistical significance is indicated by *p<0.05, **p<0.01, and ***p<0.0001.
Six-week-old female athymic nu/nu mice were purchased from Envigo. Experiments were reviewed and all procedures were performed according to an animal protocol approved by the Institutional Animal Care and Use Committee of UT MD Anderson Cancer Center. […] Carboplatin was administrated i.p. once a week at a dose of 25 mg/kg. […] Carboplatin was treated at a dose of 30 mg/kg once a week for six weeks. […] At end of six weeks, the mice were sacrificed by CO2. The mice were dissected immediately after death and the tumors were collected and weighed.
OVCAR8 cells were injected intraperitoneally (ip) into nu/nu mice. Treatment started 7 days post injection. […] At the conclusion of the treatment, the mice were sacrificed, and the tumor was dissected and weighed (FIG. 23A). […] The tumor volume was measured at indicated time points (FIG. 23D).

A2780-PAR = assay: Cell viability, cisplatin-sensitive sub-line; assay type: cell-based; details: 96 h
Protocol: (§3) Cisplatin-resistant A2780-CP20 and cisplatin-sensitive A27801 PAR sub-lines were plated at a density of 2000/well in 96-well plates, then treated with different concentrations of carboplatin for 96 h as indicated. Cell viability was measured with a bioluminescence assay and the IC50 was calculated. […] (C, D).
(§4) Cells were seeded in 6 replicates in black-walled and clear-bottomed 96-well plates and incubated overnight. […] The CellTiter-Glo luminescent cell viability assay (Promega) was used to evaluate the effect of treatment on cancer growth. This experiment was performed several times to optimize the concentration. […] GraphPad Prism 8 was used to generate growth curves and calculated IC50. CalcuSyn was used to evaluate additive or synergistic interactions, a combination Index (CI value).
(§5) Platinum resistance is commonly seen in ovarian cancer patients with recurrent disease. There is currently no standard chemotherapy for platinum-resistant recurrence. Targeting DNA damage and repair is an attractive therapeutic approach in platinum-resistant ovarian cancer.

A2780-CP20 = assay: Cell viability, cisplatin-resistant sub-line; assay type: cell-based; details: 96 h
Protocol: as §3, §4, §5

| SMILES | levels of γ-H2AX and tailed DNA [2] | IC50 (IGROV1) [µM] | IC50 (OVCAR8) [µM] | IC50 (HMEC16620) [µM] | IC50 (SKOv3) [µM] | IC50 (OC316) [µM] | IC50 (HCC5032) [µM] | IC50 (OVCAR3) [µM] | IC50 (BT549) [µM] | IC50 (MDA-MD-231) [µM] | IC50 (OV90) [µM] | IC50 (NOE72) [µM] | IC50 (DOV13) [µM] | IC50 (MDA-2774) [µM] | IC50 (OAW28) [µM] | tumor growth (tumor volume) (SKOv3 xenograft [5]) | other results |
| --- | --- | --- | --- | --- | --- | --- | --- | --- | --- | --- | --- | --- | --- | --- | --- | --- | --- |
| COc1c(F)cc(F)cc1-c1c[nH]c2ncc(-c3cnn(C4CCNCC4)c3)cc12 [Compound A, 3-(3,5-difluoro-2-methoxyphenyl)-5-(1-(piperidin-4-yl)-1H-pyrazol-4-yl)-1H-pyrrolo[2,3-b]pyridine] | modestly increased | 1.08 | 1.4 | 3.6 | 1.23 | 1.26 | 2.24 | 2.83 | 2.02 | 2.37 | 3.87 | 5.75 | 2.81 | 1.08 | 1.71 |  | phosphorylation of HDAC4/HDAC5/HDAC7 [1]: significantly decreased |
| N.N.[Cl][Pt][Cl] [Cisplatin, cisplatin] |  |  |  |  |  |  |  |  |  |  |  |  |  |  |  |  | IC50 ([3]; SK-OV-3, Table 9, cisplatin combinations): 16.8 µM; IC50 ([3]; SKOV3, Table 6, FIG. 26, top locked at 100): 17 µM |
| O=C(c1cc(Cc2n[nH]c(=O)c3ccccc23)ccc1F)N1CCN(C(=O)C2CC2)CC1 [Olaparib, olaparib] | modestly increased | 2.83 | 6.4 | 1.2 | 55.5 | 4.91 | 14.5 | 3.79 | 13.7 | 4.47 | 8.36 | 6.38 | 32.2 | 6.29 | 3.66 |  | MEF2 promoter activity (MEF2 promoter activity): did not; tumor burden / tumor volume (MDA-MB-231 xenograft): remained unchanged; numbers of transcripts up or down-regulated by ≥2-fold (SKOv3 cells): 3; tumor growth (SKOv3 xenograft [4]): significantly inhibited tumor growth |
| CC(=O)O[C@H]1C(=O)[C@@]2(C)[C@H]([C@H](OC(=O)c3ccccc3)[C@]3(O)C[C@H](OC(=O)[C@H](O)[C@@H](NC(=O)c4ccccc4)c4ccccc4)C(C)=C1C3(C)C)[C@]1(OC(C)=O)CO[C@@H]1C[C@@H]2O [Paclitaxel, paclitaxel] |  |  |  |  |  |  |  |  |  |  |  |  |  |  |  | significantly inhibited tumor growth | IC50 ([3]; Homo sapiens, SK-OV-3, SK-OV-3, Table 7, paclitaxel combinations): 0.127 µM; IC50 ([3]; Homo sapiens, SK-OV-3, SKOV3, Table 5, FIG. 25): 0.039 µM; IC50 ([3]; Homo sapiens, SK-OV-3, SKOV3, Table 6, FIG. 26): 0.127 µM; Test/Control (%) at drug Concentration [μM] (MAXF Hs 578T; Table 14, 1.0E+00 μM): 38%; Test/Control (%) at drug Concentration [μM] (MAXF Hs 578T; Table 14, 1.0E−01 μM): 44%; Test/Control (%) at drug Concentration [μM] (MAXF Hs 578T; Table 14, 1.0E−02 μM): 89%; Test/Control (%) at drug Concentration [μM] (MAXF Hs 578T; Table 14, 3.2E−01 μM): 42%; Test/Control (%) at drug Concentration [μM] (MAXF Hs 578T; Table 14, 3.2E−02 μM): 52%; Test/Control (%) at drug Concentration [μM] (MAXF MDA-MB-231; Table 14, 1.0E+00 μM): 10%; Test/Control (%) at drug Concentration [μM] (MAXF MDA-MB-231; Table 14, 1.0E−01 μM): 17%; Test/Control (%) at drug Concentration [μM] (MAXF MDA-MB-231; Table 14, 1.0E−02 μM): 45%; Test/Control (%) at drug Concentration [μM] (MAXF MDA-MB-231; Table 14, 1.0E−03 μM): 110%; Test/Control (%) at drug Concentration [μM] (MAXF MDA-MB-231; Table 14, 3.2E−01 μM): 14%; Test/Control (%) at drug Concentration [μM] (MAXF MDA-MB-231; Table 14, 3.2E−02 μM): 24% |
| N.N.O=C([O-])C1(C(=O)[O-])CCC1.[Pt+2] [carboplatin] |  |  |  |  |  |  |  |  |  |  |  |  |  |  |  | significantly inhibited tumor growth | IC50 (A2780-PAR): 1.1 µM; IC50 (A2780-CP20): 34.9 µM |

Reference: patent US20220296583A1, “COMPOSITIONS AND METHODS FOR TREATMENT OF OVARIAN AND BREAST CANCER” (Board of Regents, The University of Texas System, priority 2021, published 2022)
